Assays:
Gal4-RORγ-LBD = biological target: T1, Gal4-RORγ-LBD (Homo sapiens, UniProt P51449); assay: Gal4-RORγ Luciferase Reporter Assay in HEK-293T Cells; assay type: cell-based; details: HEK-293 cells, luciferase reporter, with 2 μM ursolic acid
T1 construct: expressed in transfected cells; host or cells: HEK-293 cells (pcDNA3.1neo plasmid)
T1 sequence (P51449 269-508 limits assumed): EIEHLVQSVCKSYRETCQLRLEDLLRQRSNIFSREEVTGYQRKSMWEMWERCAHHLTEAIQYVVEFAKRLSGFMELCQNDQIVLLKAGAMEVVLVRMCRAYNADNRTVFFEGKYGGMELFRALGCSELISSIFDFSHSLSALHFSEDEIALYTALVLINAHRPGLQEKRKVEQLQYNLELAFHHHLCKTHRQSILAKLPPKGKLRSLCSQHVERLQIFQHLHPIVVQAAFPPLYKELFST
Method in brief: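 In transfected HEK-293 cells (Gal4-RORγ-LBD, Gal4-luciferase), test agents with 2 μM ursolic acid were incubated overnight at 37 °C before luminescent detection. Values are relative to the ursolic-acid-free, compound-free signal (100).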

RORγ-LBD = biological target: T2, RORγ-LBD (Homo sapiens, UniProt P51449); assay: RORγ-Ligand Binding Domain (LBD) TR-FRET Assay; assay type: biochemical;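 on TR-FRET Assay Max Response: 665/615 nm ratio relative to signal without ursolic acid or compound set at 100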
T2 construct: made in house; host or cells: SF9 cells (baculovirus)
T2 sequence (P51449 269-508 limits assumed): T1 sequence (P51449 269-508 limits assumed)
Method in brief: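 SF9 lysate containing His-RORγ-LBD, ~3 nM final; coactivator peptide biotin-SRC1 LXXLL, 200 nM final; ursolic acid 2 μM final; DMSO 1% final; Tris pH 7.0 buffer with KCl, EDTA, DTT, BSA. TR-FRET format.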

EC50 (Gal4-RORγ-LBD) [nM] | EC50 (RORγ-LBD) [nM] | SMILES | Gal4-RORγ Assay Max Response (Gal4-RORγ-LBD) | TR-FRET Assay Max Response (RORγ-LBD)
500 to 5000 | < 500 | COc1cc(-c2ccc3c(c2)N(S(=O)(=O)c2cccc(C(F)(F)F)c2)C[C@H](CCC(=O)O)O3)ccn1 [Compound 4D, (S)-3-(6-(2-methoxypyridin-4-yl)-4-((3-(trifluoromethyl)-phenyl)sulfonyl)-3,4-dihydro-2H-benzo[b][1,4]oxazin-2-yl)propanoic acid] | * (The symbol “*” indicates a value in the range of 25 to 90) | *** (The symbol “***” indicates a value in the range of greater than 150 to 200)
500 to 5000 | < 500 | COc1cccc(-c2ccc3c(c2)N(S(=O)(=O)c2cccc(C(F)(F)F)c2)C[C@H](CCC(=O)O)O3)n1 [Compound 4E, (S)-3-(6-(6-methoxypyridin-2-yl)-4-((3-(trifluoromethyl)-phenyl)sulfonyl)-3,4-dihydro-2H-benzo[b][1,4]oxazin-2-yl)propanoic acid] | ** (The symbol “**” indicates a value in the range of greater than 90 to 150) | **** (The symbol “****” indicates a value greater than 200)
500 to 5000 | < 500 | COc1ccnc(-c2ccc3c(c2)N(S(=O)(=O)c2cccc(C(F)(F)F)c2)C[C@H](CCC(=O)O)O3)c1 [Compound 4F, (S)-3-(6-(4-methoxypyridin-2-yl)-4-((3-(trifluoromethyl)-phenyl)sulfonyl)-3,4-dihydro-2H-benzo[b][1,4]oxazin-2-yl)propanoic acid] | ** (The symbol “**” indicates a value in the range of greater than 90 to 150) | **** (The symbol “****” indicates a value greater than 200)
< 500 | < 500 | O=C(O)CC[C@H]1CN(S(=O)(=O)c2cccc(C(F)(F)F)c2)c2cc(-c3cccc(Cl)n3)ccc2O1 [Compound 4I, (S)-3-(6-(6-chloropyridin-2-yl)-4-((3-(trifluoromethyl)phenyl)-sulfonyl)-3,4-dihydro-2H-benzo[b][1,4]oxazin-2-yl)propanoic acid] | ** (The symbol “**” indicates a value in the range of greater than 90 to 150) | *** (The symbol “***” indicates a value in the range of greater than 150 to 200)
500 to 5000 | < 500 | O=C(O)CC[C@H]1CN(S(=O)(=O)c2cccc(C(F)(F)F)c2)c2cc(-c3cccn4ccnc34)ccc2O1 [Compound 4J, (S)-3-(6-(imidazo[1,2-a]pyridin-8-yl)-4-((3-(trifluoromethyl)-phenyl)sulfonyl)-3,4-dihydro-2H-benzo[b][1,4]oxazin-2-yl)propanoic acid] | ** (The symbol “**” indicates a value in the range of greater than 90 to 150) | **** (The symbol “****” indicates a value greater than 200)
> 10000 | > 10000 | Cn1ccnc1-c1ccc2c(c1)N(S(=O)(=O)c1cccc(C(F)(F)F)c1)C[C@H](CCC(=O)O)O2 [Compound 4L, (S)-3-(6-(1-methyl-1H-imidazol-2-yl)-4-((3-(trifluoromethyl)-phenyl)sulfonyl)-3,4-dihydro-2H-benzo[b][1,4]oxazin-2-yl)propanoic acid] | – | **** (The symbol “****” indicates a value greater than 200)
> 10000 | < 500 | Cn1cnc(-c2ccc3c(c2)N(S(=O)(=O)c2cccc(C(F)(F)F)c2)C[C@H](CCC(=O)O)O3)n1 [Compound 4M, (S)-3-(6-(1-methyl-1H-1,2,4-triazol-3-yl)-4-((3-(trifluoro-methyl)phenyl)sulfonyl)-3,4-dihydro-2H-benzo[b][1,4]-oxazin-2-yl)propanoic acid] | * (The symbol “*” indicates a value in the range of 25 to 90) | **** (The symbol “****” indicates a value greater than 200)

More lines, now with the values behind:

SMILES | EC50 (Gal4-RORγ-LBD) [nM] | EC50 (RORγ-LBD) [nM] | Gal4-RORγ Assay Max Response (Gal4-RORγ-LBD) | TR-FRET Assay Max Response (RORγ-LBD)
COc1cc(F)c(F)c(-c2ccc3c(c2)N(S(=O)(=O)c2cccc(C(F)(F)F)c2)C[C@H](CCC(=O)O)O3)c1 [Compound 4AR, (S)-3-(6-(2,3-difluoro-5-methoxyphenyl)-4-((3-(trifluoromethyl)phenyl)sul-fonyl)-3,4-dihydro-2H-benzo[b][1,4]oxazin-2-yl)propanoic acid] | < 500 | < 500 | ** (The symbol “**” indicates a value in the range of greater than 90 to 150) | **** (The symbol “****” indicates a value greater than 200)
O=C(O)CC[C@H]1CN(S(=O)(=O)c2cccc(C(F)(F)F)c2)c2cc(-c3cc(C(F)(F)F)cc(F)c3F)ccc2O1 [Compound 4AS, (S)-3-(6-(2,3-difluoro-5-(trifluoromethyl)phenyl)-4-((3-(trifluoromethyl)phenyl)-sulfonyl)-3,4-dihydro-2H-benzo[b][1,4]oxazin-2-yl)propanoic acid] | < 500 | < 500 | ** (The symbol “**” indicates a value in the range of greater than 90 to 150) | **** (The symbol “****” indicates a value greater than 200)
CN(C)c1ccnc(-c2ccc3c(c2)N(S(=O)(=O)c2cccc(C(F)(F)F)c2)C[C@H](CCC(=O)O)O3)n1 [Compound 4AU, (S)-3-(6-(4-(dimethylamino)-pyrimidin-2-yl)-4-((3-(trifluoromethyl)phenyl)-sulfonyl)-3,4-dihydro-2H-benzo[b][1,4]oxazin-2-yl)propanoic acid] | 500 to 5000 | < 500 | ** (The symbol “**” indicates a value in the range of greater than 90 to 150) | **** (The symbol “****” indicates a value greater than 200)
O=C(O)CC[C@H]1CN(S(=O)(=O)c2cccc(C(F)(F)F)c2)c2cc(-c3cc(F)cc(Cl)c3F)ccc2O1 [Compound 4AY, (S)-3-(6-(3-chloro-2,5-difluorophenyl)-4-((3-(trifluoromethyl)phenyl)-sulfonyl)-3,4-dihydro-2H-benzo[b][1,4]oxazin-2-yl)propanoic acid] | < 500 | < 500 | ** (The symbol “**” indicates a value in the range of greater than 90 to 150) | *** (The symbol “***” indicates a value in the range of greater than 150 to 200)
COc1cc(F)cc(-c2ccc3c(c2)N(S(=O)(=O)c2cccc(C(F)(F)F)c2)C[C@H](CCC(=O)O)O3)c1F [Compound 4AZ, (S)-3-(6-(2,5-difluoro-3-methoxyphenyl)-4-((3-(trifluoromethyl)phenyl)-sulfonyl)-3,4-dihydro-2H-benzo[b][1,4]oxazin-2-yl)propanoic acid] | < 500 | < 500 | ** (The symbol “**” indicates a value in the range of greater than 90 to 150) | **** (The symbol “****” indicates a value greater than 200)
O=C(O)CC[C@H]1CN(S(=O)(=O)c2cccc(C(F)(F)F)c2)c2cc(-c3nccc(C(F)(F)F)n3)ccc2O1 [Compound 4B, (S)-3-(4-((3-(trifluoromethyl)-phenyl)sulfonyl)-6-(4-(trifluoromethyl)pyrimidin-2-yl)-3,4-dihydro-2H-benzo[b][1,4]oxazin-2-yl)propanoic acid] | < 500 | < 500 | ** (The symbol “**” indicates a value in the range of greater than 90 to 150) | *** (The symbol “***” indicates a value in the range of greater than 150 to 200)
O=C(O)CC[C@H]1CN(S(=O)(=O)c2cccc(C(F)(F)F)c2)c2cc(-c3nc(C(F)(F)F)cs3)ccc2O1 [Compound 4G, (S)-3-(4-((3-(trifluoromethyl)phenyl)sulfonyl)-6-(4-(trifluoromethyl)thiazol-2-yl)-3,4-dihydro-2H-benzo[b][1,4]oxazin-2-yl)propanoic acid] | 500 to 5000 | < 500 | ** (The symbol “**” indicates a value in the range of greater than 90 to 150) | **** (The symbol “****” indicates a value greater than 200)
O=C(O)CC[C@H]1CN(S(=O)(=O)c2cccc(C(F)(F)F)c2)c2cc(-c3ncc(C(F)(F)F)s3)ccc2O1 [Compound 4H, (S)-3-(4-((3-(trifluoromethyl)-phenyl)sulfonyl)-6-(5-(trifluoromethyl)thiazol-2-yl)-3,4-dihydro-2H-benzo[b][1,4]oxazin-2-yl)propanoic acid] | 500 to 5000 | < 500 | * (The symbol “*” indicates a value in the range of 25 to 90) | *** (The symbol “***” indicates a value in the range of greater than 150 to 200)
Cn1cncc1-c1ccc2c(c1)N(S(=O)(=O)c1cccc(C(F)(F)F)c1)C[C@H](CCC(=O)O)O2 [Compound 4K, (S)-3-(6-(1-methyl-1H-imidazol-5-yl)-4-((3-(trifluoromethyl)-phenyl)sulfonyl)-3,4-dihydro-2H-benzo[b][1,4]oxazin-2-yl)propanoic acid] | > 10000 | 500 to 5000 | – | **** (The symbol “****” indicates a value greater than 200)
